Drawing on ChEMBL document CHEMBL5729478, “Alpha-5 beta-1 inhibitors” (2022), this text covers IC50 for three compounds.

Some results are limits rather than exact numbers.

The target in the assay is Integrin alpha-5/beta-1 (Homo sapiens, UniProt P05556+P08648). The assay is described as follows: Cell Adhesion Assay: Evaluation of cell attachment to extracellular matrix proteins was performed as previously described by Yokosaki et al, J. Biol. Chem., 271: (39): 24144-24150 (1996). Briefly, wells of non-tissue culture-treated polystyrene 96-well flat-bottom microtiter plates (Linbro/Titertek, Flow Laboratories, McLean, Va.) were coated by incubation with 100 μl of each substrate in PBS at 37° C. for 1 hour. 96-well flat-bottomed tissue culture plates were coated with human plasma fibronectin for 1 hour at 37° C. After incubation, wells were washed with PBS, then blocked with 1% bovine serum albumin (BSA) for one hour. Control wells were filled with 1% BSA. SW480 cells were detached using 10 mM EDTA and resuspended in serum-free DMEM. For blocking experiments, cells were incubated with 10 μg/ml of the antibody for 15 minutes at 4° C. before plating. The plates were centrifuged at 10 g for 5 minutes before incubation for 1 hour at 37° C. in humidified 5% CO2. Nonadherent cells were removed by centrifugation (top side down) at 10 g for 5 minutes. Attached cells were stained with 0.5% crystal violet, and the wells were washed with PBS. The relative number of cells in each well was evaluated after solubilization in 40 μl of 2% Triton X-100 by measuring absorbance at 595 nm in a microplate reader. All determinations were carried out in triplicate.
Sequence of Integrin alpha-5/beta-1 (P05556 21-798 limits assumed): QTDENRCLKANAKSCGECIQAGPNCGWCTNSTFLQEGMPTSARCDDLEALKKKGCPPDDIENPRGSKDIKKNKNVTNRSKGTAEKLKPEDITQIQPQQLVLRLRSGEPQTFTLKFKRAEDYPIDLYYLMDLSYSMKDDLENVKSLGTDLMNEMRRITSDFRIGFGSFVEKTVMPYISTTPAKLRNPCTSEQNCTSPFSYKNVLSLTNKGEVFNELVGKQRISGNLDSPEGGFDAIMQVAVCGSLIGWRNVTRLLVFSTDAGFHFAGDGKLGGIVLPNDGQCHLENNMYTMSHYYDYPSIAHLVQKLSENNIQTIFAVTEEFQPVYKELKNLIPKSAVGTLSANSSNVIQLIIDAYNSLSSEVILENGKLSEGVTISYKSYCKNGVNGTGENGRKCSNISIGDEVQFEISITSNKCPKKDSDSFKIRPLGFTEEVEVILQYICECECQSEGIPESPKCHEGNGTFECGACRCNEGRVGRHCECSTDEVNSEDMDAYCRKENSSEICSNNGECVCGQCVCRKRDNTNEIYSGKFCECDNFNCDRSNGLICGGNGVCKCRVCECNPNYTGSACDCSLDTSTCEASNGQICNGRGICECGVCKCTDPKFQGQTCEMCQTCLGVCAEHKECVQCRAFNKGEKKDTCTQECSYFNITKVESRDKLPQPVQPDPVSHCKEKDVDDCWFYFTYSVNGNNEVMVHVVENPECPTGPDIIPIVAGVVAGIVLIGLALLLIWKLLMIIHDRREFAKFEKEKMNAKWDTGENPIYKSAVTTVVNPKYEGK
Sequence of Integrin alpha-5/beta-1 (P08648 42-894 limits assumed): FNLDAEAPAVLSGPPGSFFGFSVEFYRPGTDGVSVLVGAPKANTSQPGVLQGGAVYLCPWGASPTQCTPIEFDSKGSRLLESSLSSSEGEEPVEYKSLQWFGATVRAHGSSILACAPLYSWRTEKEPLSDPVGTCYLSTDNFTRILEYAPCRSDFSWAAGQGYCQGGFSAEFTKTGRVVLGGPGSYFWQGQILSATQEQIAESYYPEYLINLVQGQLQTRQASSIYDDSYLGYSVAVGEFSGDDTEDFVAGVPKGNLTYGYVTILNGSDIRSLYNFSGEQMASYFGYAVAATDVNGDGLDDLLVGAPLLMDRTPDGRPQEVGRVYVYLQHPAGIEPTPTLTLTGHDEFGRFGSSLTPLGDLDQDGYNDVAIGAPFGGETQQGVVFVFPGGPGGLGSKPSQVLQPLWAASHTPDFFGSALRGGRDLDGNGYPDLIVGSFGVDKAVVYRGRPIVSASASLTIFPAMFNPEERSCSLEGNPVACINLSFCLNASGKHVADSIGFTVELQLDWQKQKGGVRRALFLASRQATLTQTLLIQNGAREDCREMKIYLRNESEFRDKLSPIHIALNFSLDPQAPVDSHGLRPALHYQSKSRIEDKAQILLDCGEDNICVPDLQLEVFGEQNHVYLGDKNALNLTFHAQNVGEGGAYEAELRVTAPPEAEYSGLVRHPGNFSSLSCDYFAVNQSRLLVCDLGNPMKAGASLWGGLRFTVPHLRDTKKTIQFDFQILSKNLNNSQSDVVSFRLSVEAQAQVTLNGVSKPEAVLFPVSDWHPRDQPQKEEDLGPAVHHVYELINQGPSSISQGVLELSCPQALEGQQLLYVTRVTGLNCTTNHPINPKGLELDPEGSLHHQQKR
Sequence of Integrin alpha-5/beta-1 (P08648 895-1049 limits assumed): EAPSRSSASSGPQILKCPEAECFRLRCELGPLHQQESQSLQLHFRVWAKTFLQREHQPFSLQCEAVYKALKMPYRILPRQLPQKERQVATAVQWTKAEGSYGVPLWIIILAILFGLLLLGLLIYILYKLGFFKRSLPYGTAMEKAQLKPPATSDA
`O=C(CNC(=O)c1cccc(NC2=NCC(O)CN2)c1)NC[C@H](NC(=O)c1c(Cl)cc(-c2ccccc2)cc1Cl)C(=O)O` (stereo partly drawn): the IC50 is less than 100 nM.
For `N#Cc1cc(NC(=N)N)cc(C(=O)NCC(=O)NC[C@H](NC(=O)c2c(Cl)cc(-c3ccccc3)cc2Cl)C(=O)O)c1`, the IC50 was less than 100 nM.
In turn, `O=C(CNC(=O)c1cccc(NC2=NCCCO2)c1)NC[C@H](NC(=O)c1c(Cl)cc(-c2ccccc2)cc1Cl)C(=O)O` showed an IC50 of less than 100 nM.

For orientation: IC50 means the concentration needed to halve the response being measured. Lower therefore signals higher potency.
